Data published in patent US20250388625A1, “CYCLOSPORINE ANALOGUES” (priority 2022, published 2025).
pKd: −log10 of the molar value. Where two headings read alike, the source gives them in different places.

Experiments:
cyclophilin A (CypA) = cyclophilin A (CypA) (UniProt P62937); experiment: SPR (Biacore, 25 C), CypA amine-coupled to CM5 chip, compound as analyte
IFITM3 [1] = biological target: T1, IFITM3 (Homo sapiens, UniProt Q01628); experiment: cell-based or functional assay
CypA = CypA (Homo sapiens, UniProt P62937); experiment: biochemical; assay type: binding; settings: for Max Response / pKd: SPR, Biacore, 25° C.
Description: CypA binding was carried out using surface plasmon resonance as described (Warne J Biol Chem. 2016 Feb. 26; 291 (9): 4356-73).
Surface Plasmon Resonance (SPR) using Biacore at 25° C. was used to study the binding interactions between CypA and various inhibitors. The SPR binding experiments used a duel flow cell with a blank reference. The sensor chip surface was initially activated with a mixture of N-hydroxysuccinimide (NHS,) and N-(3-dimethyl-aminopropyl)-N′-ethyl-carbodiimide hydrochloride (EDC) for 420 s with a flow rate of 10 μl/min on blank flow cell 1 in addition to flow cell 2.
CypA protein was diluted to a concentration of 50 μg/mL by the addition of 10 mM sodium acetate pH 5 solution before immobilisation and covalent attachment to the carboxy-methylated dextran matrix of the Biacore CM5 sensor chip. CypA was run against the surface for 420 s and then any unreacted surface was quenched by 420 s of ethanolamine.
Immobilisations were carried out in the presence of JW47 (Warne J Biol Chem. 2016 Feb. 26; 291 (9): 4356-73).
No regeneration stage was required if the dissociation time was sufficient.
Solvent correction was carried out in each experiment using 8 different DMSO dilutions as reference: 2.8%, 2.6%, 2.4%, 2.2%, 2%, 1.8%, 1.6% & 1.5%.
A 50/50 mixture of buffer and DMSO is required to include a wash cycle in the experiment.
50 μl of CypA (0.1 mg/ml)+40 μL of 10 mM sodium acetate pH5+10 μl of 600 μM of JW47 DMSO solution. This mixture was allowed to stand at room temperature for 10 mins prior to set-up in the injection rack.

IFITM3 [2] = biological target: T1, IFITM3; assay type: cell-based; design: treated with 10 ng/ml type 1 interferon (IFNβ) overnight to induce IFITM3 expression; endogenous in cells; host or cells: THP-1 (human monocytic cell line), IFNβ-treated
Human stem cells (HSC) [3] = experiment: Mean fluorescent intensity of transduced human stem cells (FIG. 7); assay type: cell-based
Description: Here a different measurement was made of transgene expression using the cells from the same experiment as that above (Example 5). Rather than measuring the number of cells transduced (% infection) the mean fluorescent intensity (greenness of the transgene expressing cells) was measured.

Human stem cells (HSC) [4] = assay type: cell-based
Human stem cells (HSC) [5] = experiment: Cell viability of human stem cells (FIG. 5); settings: compared with PS+LB treatment
IFITM3 [6] = biological target: T1, IFITM3; assay type: cell-based; design: treated with 10 ng/ml type 1 interferon (IFNβ) overnight to induce IFITM3 expression; endogenous in cells; host or cells: THP-1 (human monocytic cell line), IFNβ-treated; remark: listed apart in the source
IFITM3 [7] = biological target: T1, IFITM3; assay type: cell-based; design: treated with 10 ng/ml type 1 interferon (IFNβ) overnight to induce IFITM3 expression; endogenous in cells; host or cells: THP-1 (human monocytic cell line), IFNβ-treated; remark: listed apart in the source
U87 cells = experiment: HIV-GFP infection of U87 cells (FIG. 2); assay type: cell-based; settings: MOI 0.3, tested at 2.5, 5, or 10 μM
Description: Next, an experiment was performed in U87 cells. These cells differ from THP-1 in that they express IFITM3 and TRIM5. Thus only inhibitors with reduced CypA inhibition will rescue infection. This functionally tests whether the inhibitors have lost CypA inhibition, but retain IFITM3 inhibition.
U87 cells were infected at an MOI of 0.3 in the presence of DMSO (0.1% v/v) or inhibitors at 2.5, 5, or 10 μM (left bar to right bar for each indicated compound, respectively). Inhibition of IFITM3 raises infectivity. Unlike other inhibitors, BG147 gives maximal infection enhancement at the lowest concentration of 2.5 μM. Other molecules achieve maximal infection rescue at the highest concentration.

T1 sequence (Q01628 whole entry): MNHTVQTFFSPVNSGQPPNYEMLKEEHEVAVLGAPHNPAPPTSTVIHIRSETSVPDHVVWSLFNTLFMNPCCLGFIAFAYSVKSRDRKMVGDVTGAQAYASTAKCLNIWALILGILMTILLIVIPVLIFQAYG
Sequence of CypA (P62937 whole entry): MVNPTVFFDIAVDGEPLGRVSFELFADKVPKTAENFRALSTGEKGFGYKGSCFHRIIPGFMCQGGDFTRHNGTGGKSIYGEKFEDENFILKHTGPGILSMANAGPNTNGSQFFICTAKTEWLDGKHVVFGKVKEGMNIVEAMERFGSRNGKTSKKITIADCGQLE
Sequence of cyclophilin A (CypA) (P62937 whole entry): as above

Cyclosporine A (CsA) (peptide)
Max Response (cyclophilin A (CypA)): 40 RU
fold rescue of HIV-GFP infection compared to IFN-inhibited baseline, THP-1 cells, compound at 5 µM (IFITM3 [1]): 9.9 fold

CC[C@@H]1NC(=O)[C@H]([C@H](O)[C@H](C)CC=Cc2ccc(C(=O)OCCn3ccnc3)cc2C(F)(F)F)N(C)C(=O)[C@H](C(C)C)N(C)C(=O)[C@H](CC(C)C)N(C)C(=O)[C@H](CC(C)C)N(C)C(=O)[C@@H](C)NC(=O)[C@H](C)NC(=O)[C@H](CC(C)C)N(C)C(=O)[C@H](C(C)C)NC(=O)[C@H](CC(C)C)N(C)C(=O)CN(C)C1=O [BG190]
koff (CypA): 0.0138 s⁻¹
kon (CypA): 4800 M⁻¹ s⁻¹
Max Response (CypA): 13.2 RU
pKd (CypA; read-out: Kd (Affinity)): 5.22

CCc1cc(C(=O)OCCn2ccnc2)ccc1C=CC[C@@H](C)[C@@H](O)[C@H]1C(=O)N[C@@H](CC)C(=O)N(C)CC(=O)N(C)[C@@H](CC(C)C)C(=O)N[C@@H](C(C)C)C(=O)N(C)[C@@H](CC(C)C)C(=O)N[C@@H](C)C(=O)N[C@H](C)C(=O)N(C)[C@@H](CC(C)C)C(=O)N(C)[C@@H](CC(C)C)C(=O)N(C)[C@@H](C(C)C)C(=O)N1C [BG149]
Max Response (CypA): 4.8 RU

CC[C@@H]1NC(=O)[C@H]([C@H](O)[C@H](C)C/C=C/CCCn2ccnc2)N(C)C(=O)C(C(C)C)N(C)C(=O)[C@H](CC(C)C)N(C)C(=O)[C@H](CC(C)C)N(C)C(=O)[C@@H](C)NC(=O)[C@H](C)NC(=O)[C@H](CC(C)C)N(C)C(=O)[C@H](C(C)C)NC(=O)[C@H](CC(C)C)N(C)C(=O)CN(C)C1=O (stereo partly shown) [JW-115, reference compound]
fold rescue compared to inhibited baseline (IFITM3 [2]): 14.2 fold

CC[C@@H]1NC(=O)[C@H]([C@H](O)[C@H](C)CC=Cc2ccc(C(=O)OCCn3ccnc3)cc2OC)N(C)C(=O)[C@H](C(C)C)N(C)C(=O)[C@H](CC(C)C)N(C)C(=O)[C@H](CC(C)C)N(C)C(=O)[C@@H](C)NC(=O)[C@H](C)NC(=O)[C@H](CC(C)C)N(C)C(=O)[C@H](C(C)C)NC(=O)[C@H](CC(C)C)N(C)C(=O)CN(C)C1=O [BG181]
koff (CypA): 0.228 s⁻¹
kon (CypA): 6360 M⁻¹ s⁻¹
Max Response (CypA): 9.8 RU
pKd (CypA; read-out: Kd (Affinity)): 5.58
pKd (CypA; read-out: Kd (Kinetics)): 4.44

CC[C@@H]1NC(=O)[C@H]([C@H](O)[C@H](C)C/C=C/c2ccc(C(=O)OCCn3ccnc3)c3ccccc23)N(C)C(=O)[C@H](C(C)C)N(C)C(=O)[C@H](CC(C)C)N(C)C(=O)[C@H](CC(C)C)N(C)C(=O)[C@@H](C)NC(=O)[C@H](C)NC(=O)[C@H](CC(C)C)N(C)C(=O)[C@H](C(C)C)NC(=O)[C@H](CC(C)C)N(C)C(=O)CN(C)C1=O [BG147, 2-(1H-imidazol-1-yl)-ethyl-4-((4R,5R,E)-5-((2S,5S,11S,14S,17S,20S,23R,26S,29S,32S)-5-ethyl-11,17,26,29-tetraisobutyl-14,32-diisopropyl-1,7,10,16,20,23,25,28,31-nonamethyl-3,6,9,12,15,18,21,24,27,30,33-undecaoxo-1,4,7,10,13,16,19,22,25,28,31-undecaazacyclotritriacontan-2-yl)-5-hydroxy-4-methylpent-1-en-1-yl)-1-naphthoate]
overall performance as transduction enhancer in stem cells (Human stem cells (HSC) [3]; Examples 5 and 6): performs best
mean fluorescent intensity (greenness of transgene expressing cells) (Human stem cells (HSC) [3]; treatment with 2.5 μM BG147+PS+LB): greenest cells
koff (CypA): 0.0216 s⁻¹
kon (CypA): 9750 M⁻¹ s⁻¹
pKd (CypA; Kd (Affinity)): 5.28
pKd (CypA; Kd (Kinetics)): 5.65
Max Response (CypA): 14.0 RU
transduction enhancement (% infected human stem cells), first donor (Human stem cells (HSC) [4]; 48 hours post transduction, FIG. 4): out performs other inhibitors and is as effective as state of the art transduction enhancer
transduction enhancement (% infected human stem cells), second HSC donor (Human stem cells (HSC) [4]; 48 hours post transduction, FIG. 6): out-performed other inhibitors including state of the art transduction enhancer combination of LB+PS
combination effect on number of transduced cells (Human stem cells (HSC) [4]; BG147 at 2.5 μM with PS and LB, second HSC donor): additive with PS and LB giving the best number of transduced (infected) cells
cell viability after treatment (Human stem cells (HSC) [5]): viability is good
relative potency in rescue of infection (IFITM3 [6]): more potent than CsH
rescue of infection from the antiviral effect of IFN (IFITM3 [6]): rescue infection from the antiviral effect of IFN
rescue of infection from IFN (% infected cells) (IFITM3 [7]): completely rescued infection from IFN
concentration giving maximal infection enhancement (U87 cells): 2.5 µM

CC[C@@H]1NC(=O)[C@H]([C@H](O)[C@H](C)CC=Cc2ccc(C(=O)OCCn3ccnc3)cc2C)N(C)C(=O)[C@H](C(C)C)N(C)C(=O)[C@H](CC(C)C)N(C)C(=O)[C@H](CC(C)C)N(C)C(=O)[C@@H](C)NC(=O)[C@H](C)NC(=O)[C@H](CC(C)C)N(C)C(=O)[C@H](C(C)C)NC(=O)[C@H](CC(C)C)N(C)C(=O)CN(C)C1=O [BG150]
koff (CypA): 0.0425 s⁻¹
kon (CypA): 11100 M⁻¹ s⁻¹
Max Response (CypA): 18.7 RU
pKd (CypA; read-out: Kd (Affinity)): 5.88
pKd (CypA; read-out: Kd (Kinetics)): 5.42

CC[C@@H]1NC(=O)[C@H]([C@H](O)[C@H](C)CC=Cc2ccc(C(=O)OCCn3ccnc3)cc2OC(C)C)N(C)C(=O)[C@H](C(C)C)N(C)C(=O)[C@H](CC(C)C)N(C)C(=O)[C@H](CC(C)C)N(C)C(=O)[C@@H](C)NC(=O)[C@H](C)NC(=O)[C@H](CC(C)C)N(C)C(=O)[C@H](C(C)C)NC(=O)[C@H](CC(C)C)N(C)C(=O)CN(C)C1=O [BG185]
koff (CypA): 0.584 s⁻¹
kon (CypA): 2250 M⁻¹ s⁻¹
Max Response (CypA): 14.5 RU
pKd (CypA; read-out: Kd (Affinity)): 5.53
pKd (CypA; read-out: Kd (Kinetics)): 3.59

CC[C@@H]1NC(=O)[C@H]([C@H](O)[C@H](C)CC=Cc2c(OC)cc(C(=O)OCCn3ccnc3)cc2OC)N(C)C(=O)[C@H](C(C)C)N(C)C(=O)[C@H](CC(C)C)N(C)C(=O)[C@H](CC(C)C)N(C)C(=O)[C@@H](C)NC(=O)[C@H](C)NC(=O)[C@H](CC(C)C)N(C)C(=O)[C@H](C(C)C)NC(=O)[C@H](CC(C)C)N(C)C(=O)CN(C)C1=O [BG186, 2-(1H-imidazol-1-yl)ethyl 4-((4R,5R)-5-((2S,5S,11S,14S,17S,20S,23R,26S,29S,32S)-5-ethyl-11,17,26,29-tetraisobutyl-14,32-diisopropyl-1,7,10,16,20,23,25,28,31-nonamethyl-3,6,9,12,15,18,21,24,27,30,33-undecaoxo-1,4,7,10,13,16,19,22,25,28,31-undecaazacyclotritriacontan-2-yl)-5-hydroxy-4-methylpent-1-en-1-yl)-3,5-dimethoxybenzoate]
koff (CypA): 0.422 s⁻¹
kon (CypA): 14600 M⁻¹ s⁻¹
pKd (CypA; Kd (Affinity)): 5.32
pKd (CypA; Kd (Kinetics)): 4.54
Max Response (CypA): 7.6 RU

Cyclosporine H (CsH) (peptide)
fold rescue of HIV-GFP infection compared to IFN-inhibited baseline, THP-1 cells, compound at 5 µM (IFITM3 [1]): 24.6 fold

C/C=C/C[C@@H](C)[C@@H](O)[C@H]1C(=O)N[C@@H](CC)C(=O)N(C)CC(=O)N(C)[C@@H](CC(C)C)C(=O)N[C@@H](C(C)C)C(=O)N(C)[C@@H](CC(C)C)C(=O)N[C@@H](C)C(=O)N[C@H](C)C(=O)N(C)[C@@H](CC(C)C)C(=O)N(C)[C@@H](CC(C)C)C(=O)N(C)[C@H](C(C)C)C(=O)N1C [CsH, Cyclosporine H, reference compound]
transduction enhancement (% infected human stem cells), first donor (Human stem cells (HSC) [4]): achieves good enhancement but at higher concentrations
rescue of infection from the antiviral effect of IFN (IFITM3 [6]): rescue infection from the antiviral effect of IFN
